Experimental data taken from article PMC10615754 (Molecular Psychiatry, 2023).

What was measured:
hOCT3 [1] = target: T1, hOCT3 (Homo sapiens, UniProt O75751); assay: Real-time uptake of fluorescent substrate ASP+ in YFP-hOCT3 HEK293 cells; assay type: cell-based; conditions: 3 µM ASP+
T1 construct: expressed in transfected cells
T1 sequence (O75751 1-556): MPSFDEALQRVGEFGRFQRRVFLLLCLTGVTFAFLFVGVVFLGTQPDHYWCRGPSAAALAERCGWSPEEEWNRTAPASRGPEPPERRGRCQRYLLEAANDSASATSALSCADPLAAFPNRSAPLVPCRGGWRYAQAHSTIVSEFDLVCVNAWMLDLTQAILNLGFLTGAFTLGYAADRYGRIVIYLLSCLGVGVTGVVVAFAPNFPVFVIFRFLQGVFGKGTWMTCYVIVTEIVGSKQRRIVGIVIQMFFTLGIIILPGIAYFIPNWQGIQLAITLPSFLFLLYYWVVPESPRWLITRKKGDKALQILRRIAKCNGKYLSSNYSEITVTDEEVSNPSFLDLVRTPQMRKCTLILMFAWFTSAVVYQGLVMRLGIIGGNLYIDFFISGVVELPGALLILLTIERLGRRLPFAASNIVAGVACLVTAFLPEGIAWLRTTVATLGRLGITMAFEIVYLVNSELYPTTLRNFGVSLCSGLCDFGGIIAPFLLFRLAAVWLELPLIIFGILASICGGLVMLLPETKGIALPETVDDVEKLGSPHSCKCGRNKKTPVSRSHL

NET [2] = target: T2, NET (Mus musculus, UniProt O55192); parameters: from tissue; host or cells: hippocampus of male SERT+/- mice; method as in earlier work; conditions: known Kd from prior studies, used to calculate Ki; ref 20 (SI); read-out: Kd of hot ligand at NET; cited from earlier work
hOCT3 [3] = target: T1, hOCT3; assay: Inhibition of [3H]MPP+ uptake into HEK293 cells stably expressing hOCT3; assay type: cell-based
Protocol: Mechanically detached HEK293 cells grown to confluence in 4-5 ml flasks were suspended in 3-4 ml of media in a 15 ml polypropylene conical tube.
Cells were harvested on a Brandel 48 well harvester by vacuum filtration onto glass fiber filter strips (Brandel, Gaithersburg, MD, USA) pre-soaked in a 1% polyethalineamine saline solution. […] Protein concentration of the cell suspension was determined after solubilization in 1N NaOH against known concentrations of bovine serum albumen with Bradford reagent as for mouse brain homogenates.
Data Analysis: Experiments were performed in triplicate. Percent of total binding was calculated, and uptake kinetics determined with GraphPad Prism.

SERT = SERT (Mus musculus, UniProt Q60857); conditions: ethanol 3.4 nM up to 1 M, hippocampal homogenates
Protocol: (§1) Thus, in the current experiments, male constitutive SERT+/- mice weighing 25-30g were used, 3 per assay. […] Mice were euthanized by cervical dislocation without use of anesthesia to prevent anesthetic-induced attenuation of transporter binding sites. Whole hippocampi or striatum were harvested and placed in 30 ml of ice-cold buffer specific to each assay.
(§2) Tissue Collection and Preparation: Mice were humanely euthanized by cervical dislocation and decapitated without anesthesia to collect fresh brain tissues without compromising transporter binding properties. Striatum from each mouse were placed in a round 50 ml polycarbonate tube (Nalge Nunc, Rochester, NY, USA) containing 30 mM sodium phosphate and 0.32 M sucrose for DAT binding as in Reith and Coffey^16. […] All tissues were homogenized at 26,000 RPM for 1 min with a Polytron tissue homogenizer (Brinkman Instruments, Westbury, NY, USA). […] The supernate was discarded, and the pellet re-suspended in 25 ml buffer on ice using a Potter Elvehjem 10 ml glass and teflon homogenizer. The homogenate was re-centrifuged for 10 min at 36,000 x g.
Radioligand binding to SERT was performed on hippocampal homogenates according to the procedure of D’Amato et al.^19. […]
(§3) Data Analysis: Binding data were analyzed using non-linear regression curve fitting with GraphPad Prism (La Jolla, CA, USA).

hDAT = hDAT (Homo sapiens, UniProt Q01959); conditions: 10 µM APP+
OCT3+/+ and OCT3-/- mice [4] = assay: Conditioned place preference (CPP); assay type: in vivo; conditions: ethanol 1 g/kg + cocaine […] i.p.
Protocol: In the same procedure, sensitization of cocaine-induced locomotion (in the presence and absence of ethanol) was measured. Loss of righting reflex (LORR) was assessed as described previously [36].
For CPP and sensitization to the locomotor stimulant effects of these drugs, mice were injected i.p. with physiological saline, saline + EtOH (100 mg/kg), saline + cocaine (3.2 mg/kg), or EtOH (100 mg/kg) + cocaine (3.2 mg/kg) immediately prior to assay. […] For LORR behavioral assays, mice were injected i.p. with a sedative dose of EtOH, at 3.2 g/kg (base weight per kilogram body weight).
CPP. Conditioned place preference (CPP) in rodents, which is often used to model abuse-related drug effects, is shown by a preference for an environment previously paired with a drug compared with an environment previously paired with vehicle^31, 32. Mice were exposed to an unbiased, one-compartment place-conditioning procedure, with sessions conducted once per day (see^12, 13). […]
This analysis was followed with separate two-way ANOVAs to further probe sex*genotype and treatment*genotype interactions. […] There were no interaction or main effects of sex on sensitization, so male and female data were pooled for further analysis, in which effects of genotype and days were assessed separately for each drug treatment using two-way repeated measures ANOVA’s. […]

DAT = target: T3, DAT (Mus musculus, UniProt Q61327); assay: Competition binding of [3H]WIN35,428 to DAT in mouse striatal homogenates
T3 construct: from tissue; host or cells: striatum of male SERT+/- mice
Protocol: as §1, §2
The final pellet was re-suspended in 30 mM sodium phosphate and 0.32 M sucrose pH 7.4 at 4°C, and binding assays were carried out in duplicate for 2 hours at 4°C.
Labeled homogenates were captured through filtration under vacuum onto glass fiber filters pre-soaked in 0.5% polyethyleneimine (Sigma) on a Brandel tissue harvester (Gaithersburg, MD). Filters were washed twice more with 4 ml of buffer.
as §3

hNET = hNET (Homo sapiens, UniProt P23975)
OCT3+/+ and OCT3-/- mice [5] = assay: Sensitization of locomotor activity during CPP conditioning sessions; assay type: in vivo; conditions: for Locomotor sensitization, first vs. 4th session Mean Difference: sexes pooled, ethanol 1 g/kg and/or cocaine […]
[6] = rats, systemic administration of 1 mg/kg of ethanol (i.p.); cited from earlier work
NET [7] = target: T2, NET; conditions: ethanol 3.4 nM up to 1 M, hippocampal homogenates
Protocol: as §1
Tissue Collection and Preparation: Mice were humanely euthanized by cervical dislocation and decapitated without anesthesia to collect fresh brain tissues without compromising transporter binding properties. Striatum from each mouse were placed in a round 50 ml polycarbonate tube (Nalge Nunc, Rochester, NY, USA) containing 30 mM sodium phosphate and 0.32 M sucrose for DAT binding as in Reith and Coffey^16. […] All tissues were homogenized at 26,000 RPM for 1 min with a Polytron tissue homogenizer (Brinkman Instruments, Westbury, NY, USA). […] The supernate was discarded, and the pellet re-suspended in 25 ml buffer on ice using a Potter Elvehjem 10 ml glass and teflon homogenizer. The homogenate was re-centrifuged for 10 min at 36,000 x g. […]
as §3

[8] = system: DA clearance in dorsal striatum; assay: In vivo high-speed chronoamperometry of DA clearance in dorsal striatum; conditions: for percent change in T20-60 value from baseline / percent change in peak amplitude of DA signal from baseline: dorsal striatum, 2 minutes following administration, mean and SEM; for Effect on DA clearance time (T80): intrastriatal application, ethanol ~0.5-10 mM, cocaine 1-10 µM at recording site, 2 min after drug; for EC50, half maximally effective amount to inhibit DA clearance (T80) / Emax, maximal inhibition of DA clearance (percent increase in T80): 2 min post-intrastriatal application; for Emax, maximal inhibition of DA clearance (percent increase in T80): 4-parameter logistic fit
OCT3 = system: OCT3; parameters: method as in PMID 29773909, PMID 16581093; conditions: at concentrations lower than 100 µM; cited from earlier work
hSERT = hSERT (Homo sapiens, UniProt P31645); conditions: 10 µM cocaine, 10 µM APP+
hOCT3 [9] = target: T1, hOCT3; parameters: method as in PMID 29773909; conditions: previously shown; cited from earlier work

T3 sequence (Q61327 whole entry): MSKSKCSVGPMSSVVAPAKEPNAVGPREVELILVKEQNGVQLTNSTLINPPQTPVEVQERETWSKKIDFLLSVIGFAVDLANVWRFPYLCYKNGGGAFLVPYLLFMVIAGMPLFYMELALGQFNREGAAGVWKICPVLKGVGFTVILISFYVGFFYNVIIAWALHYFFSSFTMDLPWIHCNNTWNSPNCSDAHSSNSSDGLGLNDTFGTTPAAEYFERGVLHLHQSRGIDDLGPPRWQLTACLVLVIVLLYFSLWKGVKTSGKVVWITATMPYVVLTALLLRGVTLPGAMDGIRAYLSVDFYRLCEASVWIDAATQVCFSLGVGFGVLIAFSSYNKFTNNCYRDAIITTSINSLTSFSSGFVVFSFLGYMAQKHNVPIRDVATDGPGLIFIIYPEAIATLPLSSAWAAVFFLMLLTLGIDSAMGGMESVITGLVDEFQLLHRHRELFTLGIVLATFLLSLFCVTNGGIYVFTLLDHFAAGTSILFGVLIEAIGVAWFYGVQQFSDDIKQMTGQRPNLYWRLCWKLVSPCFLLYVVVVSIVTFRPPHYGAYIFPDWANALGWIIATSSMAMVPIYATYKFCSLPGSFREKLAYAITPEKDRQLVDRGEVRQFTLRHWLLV
Sequence of hDAT (Q01959 whole entry): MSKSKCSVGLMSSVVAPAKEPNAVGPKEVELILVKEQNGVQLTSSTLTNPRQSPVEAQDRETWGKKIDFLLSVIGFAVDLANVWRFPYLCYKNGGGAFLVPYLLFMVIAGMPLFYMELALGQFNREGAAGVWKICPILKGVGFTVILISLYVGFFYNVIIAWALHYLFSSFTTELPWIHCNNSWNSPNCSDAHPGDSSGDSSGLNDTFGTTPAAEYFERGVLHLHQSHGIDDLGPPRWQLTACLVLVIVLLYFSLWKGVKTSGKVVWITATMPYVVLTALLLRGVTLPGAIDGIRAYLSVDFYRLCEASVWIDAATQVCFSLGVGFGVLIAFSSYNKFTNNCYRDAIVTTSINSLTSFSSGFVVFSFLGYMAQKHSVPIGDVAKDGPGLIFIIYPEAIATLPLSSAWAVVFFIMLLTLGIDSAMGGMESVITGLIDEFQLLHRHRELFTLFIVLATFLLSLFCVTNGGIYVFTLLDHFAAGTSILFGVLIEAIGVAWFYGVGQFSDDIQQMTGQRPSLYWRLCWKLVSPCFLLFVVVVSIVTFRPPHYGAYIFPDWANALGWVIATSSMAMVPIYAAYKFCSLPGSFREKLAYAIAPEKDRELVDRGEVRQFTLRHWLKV
T2 sequence (O55192 whole entry): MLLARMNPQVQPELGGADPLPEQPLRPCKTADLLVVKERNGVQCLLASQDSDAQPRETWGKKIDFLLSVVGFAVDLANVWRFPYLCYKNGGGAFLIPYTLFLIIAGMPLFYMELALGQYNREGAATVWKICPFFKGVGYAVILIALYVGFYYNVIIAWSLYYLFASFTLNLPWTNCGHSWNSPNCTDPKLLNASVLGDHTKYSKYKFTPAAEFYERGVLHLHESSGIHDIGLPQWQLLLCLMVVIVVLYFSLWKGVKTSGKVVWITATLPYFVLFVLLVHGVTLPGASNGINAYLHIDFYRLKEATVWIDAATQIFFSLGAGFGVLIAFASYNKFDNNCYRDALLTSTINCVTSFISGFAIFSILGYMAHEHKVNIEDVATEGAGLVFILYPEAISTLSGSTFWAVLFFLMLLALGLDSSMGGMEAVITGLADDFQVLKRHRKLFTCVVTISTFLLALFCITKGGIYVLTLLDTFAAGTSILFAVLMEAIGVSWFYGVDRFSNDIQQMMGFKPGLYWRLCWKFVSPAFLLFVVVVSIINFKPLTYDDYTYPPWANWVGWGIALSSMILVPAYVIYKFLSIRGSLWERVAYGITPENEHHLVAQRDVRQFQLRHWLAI
Sequence of hSERT (P31645 whole entry): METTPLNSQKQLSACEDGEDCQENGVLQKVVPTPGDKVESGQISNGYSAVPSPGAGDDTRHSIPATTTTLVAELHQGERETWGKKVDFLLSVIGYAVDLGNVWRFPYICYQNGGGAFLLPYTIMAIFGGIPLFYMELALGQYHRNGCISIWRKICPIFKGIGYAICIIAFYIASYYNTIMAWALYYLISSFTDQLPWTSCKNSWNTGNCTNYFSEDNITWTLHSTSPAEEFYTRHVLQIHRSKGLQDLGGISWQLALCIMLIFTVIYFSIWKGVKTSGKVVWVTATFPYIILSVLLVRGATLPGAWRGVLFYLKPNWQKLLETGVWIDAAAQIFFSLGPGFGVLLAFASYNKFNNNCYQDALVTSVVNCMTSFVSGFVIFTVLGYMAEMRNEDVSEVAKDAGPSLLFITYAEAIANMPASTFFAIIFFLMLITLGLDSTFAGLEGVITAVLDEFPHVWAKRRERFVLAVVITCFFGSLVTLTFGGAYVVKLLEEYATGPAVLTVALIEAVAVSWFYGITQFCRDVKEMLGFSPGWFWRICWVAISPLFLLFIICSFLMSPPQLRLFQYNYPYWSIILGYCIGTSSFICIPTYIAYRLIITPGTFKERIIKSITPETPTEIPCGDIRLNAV
Sequence of hNET (P23975 whole entry): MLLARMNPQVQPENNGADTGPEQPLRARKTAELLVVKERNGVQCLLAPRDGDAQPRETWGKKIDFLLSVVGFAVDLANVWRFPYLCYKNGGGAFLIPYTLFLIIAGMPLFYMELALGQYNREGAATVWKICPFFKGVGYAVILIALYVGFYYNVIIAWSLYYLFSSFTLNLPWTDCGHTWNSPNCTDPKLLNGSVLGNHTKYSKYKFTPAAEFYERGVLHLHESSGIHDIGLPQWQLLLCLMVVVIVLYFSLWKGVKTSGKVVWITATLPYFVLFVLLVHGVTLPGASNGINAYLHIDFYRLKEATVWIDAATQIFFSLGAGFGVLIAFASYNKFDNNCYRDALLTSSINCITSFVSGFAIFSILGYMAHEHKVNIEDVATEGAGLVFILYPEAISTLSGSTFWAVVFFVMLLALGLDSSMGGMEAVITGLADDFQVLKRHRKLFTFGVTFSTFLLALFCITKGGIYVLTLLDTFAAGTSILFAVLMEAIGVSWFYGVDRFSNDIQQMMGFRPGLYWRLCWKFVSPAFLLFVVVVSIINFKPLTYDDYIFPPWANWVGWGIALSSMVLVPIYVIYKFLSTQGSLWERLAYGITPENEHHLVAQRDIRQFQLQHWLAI
Sequence of SERT (Q60857 whole entry): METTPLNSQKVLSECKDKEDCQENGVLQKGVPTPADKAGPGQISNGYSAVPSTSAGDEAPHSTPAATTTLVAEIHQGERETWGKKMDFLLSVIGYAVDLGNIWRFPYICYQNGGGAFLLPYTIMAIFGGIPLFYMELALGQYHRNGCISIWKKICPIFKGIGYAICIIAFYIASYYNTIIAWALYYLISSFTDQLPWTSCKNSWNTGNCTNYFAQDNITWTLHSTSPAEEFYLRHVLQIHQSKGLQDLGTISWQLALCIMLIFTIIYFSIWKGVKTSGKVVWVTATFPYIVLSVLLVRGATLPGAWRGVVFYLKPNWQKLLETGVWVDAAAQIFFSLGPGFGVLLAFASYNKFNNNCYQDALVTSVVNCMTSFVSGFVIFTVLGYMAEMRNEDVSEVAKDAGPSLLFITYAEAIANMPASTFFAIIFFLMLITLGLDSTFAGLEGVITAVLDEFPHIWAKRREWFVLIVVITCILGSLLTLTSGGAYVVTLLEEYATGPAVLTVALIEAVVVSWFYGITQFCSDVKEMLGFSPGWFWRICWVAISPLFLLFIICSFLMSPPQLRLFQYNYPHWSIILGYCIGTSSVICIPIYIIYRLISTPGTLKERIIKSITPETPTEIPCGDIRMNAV

C[C@]12C[C@H](O)[C@H]3[C@@H](CCC4=CC(=O)CC[C@@]43C)[C@@H]1CC[C@@H]2C(=O)CO [corticosterone]
Block of ASP+ uptake (hOCT3 [1]; 10 µM corticosterone): fully blocked uptake of ASP^+

CNCCC(Oc1ccccc1OC)c1ccccc1 (stereo not drawn) [[^3H]Nisoxetine]
Kd (NET [2]): 0.0025 µM

C[n+]1ccc(-c2ccccc2)cc1 [[^3H]MPP^+, 1-methyl-4-phenylpyridinium]
Km (hOCT3 [3]; used to determine Ki values, read-out: Km for uptake in OCT3 over-expressing cells): 1000 µM

CCO [ethanol]
Displacement of [3H]citalopram binding to SERT (SERT): did not displace | Inhibition of APP+ uptake into hDAT HEK293 cells (hDAT; highest ethanol concentration tested (100 mM)): only modestly inhibited uptake | Potentiation of CPP for cocaine by ethanol (OCT3+/+ and OCT3-/- mice [4]): did not potentiate CPP for cocaine | Displacement of [3H]WIN35,428 binding to DAT (DAT; ethanol 3.4 nM up to 1 M, striatal homogenates): did not displace | Inhibition of APP+ uptake into hNET HEK293 cells (hNET): only modestly inhibited uptake | Locomotor sensitization, first vs. 4th session Mean Difference (OCT3+/+ and OCT3-/- mice [5]; OCT3+/+ mice): −12.01 | Sensitization of locomotor activity (OCT3+/+ and OCT3-/- mice [5]; ethanol alone, OCT3+/+ and OCT3-/- mice): no ethanol-induced sensitization | Inhibition of ASP+ uptake (hOCT3 [1]; 30 mM ethanol, A.U.C. T80-150 s): ~ 50% | Block of ASP+ uptake (hOCT3 [1]; 100 mM ethanol): fully blocked uptake of ASP^+ | Dialysate ethanol levels in the nucleus accumbens [6]: approximately 6 mM | Displacement of [3H]nisoxetine binding to NET (NET [7]): did not displace | Ki (hOCT3 [3]; hOCT3 HEK293 cells, N = 5 replicate assays in triplicate): 4200 ± 200 µM | percent change in T20-60 value from baseline ([8]; OCT3+/+ mice): 123 ± 8 (14) percent | percent change in peak amplitude of DA signal from baseline ([8]; OCT3+/+ mice): 80 ± 8 (14) percent | Effect on DA clearance time (T80) ([8]; OCT3+/+ mice): increased T80 DA clearance time | percent change in T20-60 value from baseline ([8]; OCT3-/- mice): 100 ± 6 (17)^###/$$ percent | percent change in peak amplitude of DA signal from baseline ([8]; OCT3-/- mice): 70 ± 8 (17) percent | Effect on DA clearance time (T80) ([8]; OCT3-/- mice): did not inhibit DA clearance

COC(=O)[C@H]1[C@@H](OC(=O)c2ccccc2)C[C@@H]2CC[C@H]1N2C [cocaine]
Block of APP+ uptake into hDAT HEK293 cells (hDAT; 10 µM cocaine): blocked APP^+ uptake | Locomotor sensitization, first vs. 4th session Mean Difference (OCT3+/+ and OCT3-/- mice [5]; OCT3+/+ mice): -9.84 | Locomotor sensitization, first vs. 4th session Mean Difference (OCT3+/+ and OCT3-/- mice [5]; OCT3-/- mice): -31.91 | Activity at OCT3 (OCT3): does not have activity at OCT3 | Block of APP+ uptake into hSERT HEK293 cells (hSERT): blocked APP^+ uptake | EC50, half maximally effective amount to inhibit DA clearance (T80) ([8]; OCT3+/+ mice): 35 ± 9 pmol | Emax, maximal inhibition of DA clearance (percent increase in T80) ([8]; OCT3+/+ mice): 150 ± 13% | percent change in T20-60 value from baseline ([8]; OCT3+/+ mice): 140 ± 8 (16)**/^† percent | percent change in peak amplitude of DA signal from baseline ([8]; OCT3+/+ mice): 109 ± 14 (16) percent | Effect on DA clearance time (T80) ([8]; OCT3+/+ mice): inhibited DA clearance | EC50, half maximally effective amount to inhibit DA clearance (T80) ([8]; OCT3-/- mice): 23 ± 16 pmol | Emax, maximal inhibition of DA clearance (percent increase in T80) ([8]; OCT3-/- mice): 154 ± 15% | percent change in T20-60 value from baseline ([8]; OCT3-/- mice): 148 ± 14 (15) percent | percent change in peak amplitude of DA signal from baseline ([8]; OCT3-/- mice): 106 ± 16 (15) percent | Effect on DA clearance time (T80) ([8]; OCT3-/- mice): inhibited DA clearance | Block of fluorescent substrate uptake in hOCT3 HEK293 cells (hOCT3 [9]): does not block fluorescent substrate uptake

Fc1ccc(C(OCCN2CCN(CCCc3ccccc3)CC2)c2ccc(F)cc2)cc1 [GBR12909]
Ki (DAT; 2.7 nM [3H]WIN35,428, striatal homogenates, mean (95% CI), N = 3 mice, read-out: Ki for displacement of [3H]WIN35,428 binding to DAT): 0.001 µM

COC(=O)[C@H]1[C@@H](c2ccc(F)cc2)C[C@@H]2CC[C@H]1N2C [[^3H]WIN35,428]
Kd (DAT; saturation assays on striatum of 5 C57BL/6J mice, used to calculate Ki, read-out: Kd of hot ligand at DAT): 0.0078 µM
